Measured values published in paper PMC4984800, “A first in man, dose-finding study of the mTORC1/mTORC2 inhibitor OSI-027 in patients with advanced solid malignancies” (British Journal of Cancer, 2016).
Read-outs that look alike come from different tables or passages of the source.

How the values were obtained:
[1] = First-in-human trial: pharmacokinetics in plasma and urine; format: in vivo; settings: for AUC(0-t): read-out: AUC24hr
Procedure: Blood and urine samples were collected at prespecified time points for 24 h after initial dose and at days 2–3 (S2) and after multiple doses on days 3–4 (S1) and 22–23 (S3) across dose levels. Predose samples were collected on days 8, 15 and 22. Urine samples were collected during cycle 1.
Descriptive statistics were used to summarise the safety data, including all patients who received at least one dose of OSI-027. All patients who completed the pharmacokinetic sampling were included in the PK analyses, which used descriptive statistics to summarise AUC0–∞, AUC0–t, Cmax, Clast, Tmax, Tlast, %AUC extrapolated, T1/2, clearance (Cl/F) and volume of distribution (Vz/F). Exploratory analysis were planned to correlate pharmacodynamics and pharmacokinetics. Response to treatment was evaluated according to Response Evaluation Criteria in Solid Tumors (RECIST) ([Therasse et al, 2000]).

pS6 in tumour biopsies = test: Paired tumour biopsies: pS6 immunohistochemistry; format: in vivo, human
Procedure: Drug-mediated inhibition of the mTORC1 and mTORC2 signalling was evaluated through assessing modulation of phospho-4EBP1 and phospho-PRAS40 in PBMC, as well as phospho-4EBP1 and phospho-S6 in tumour biopsies. Blood aliquots were collected prior to start dosing and at prespecified time points during the first course of treatment. Fresh tumour biopsies were obtained from selected patients during the dose escalation stage and from all patients in the expansion cohorts, at baseline and during cycle 1.
Drug-mediated inhibition of mTORC1 and mTORC2 signalling by OSI-027 was assessed by measuring inhibition of their effectors p4EBP1 (Thr37/46) and pPRAS40 (Thr246), respectively, in PBMC. In addition, paired tumour biopsies at screening and during first month of therapy were used to study target modulation.
In 21 cases, pre- and postdose paired tumour biopsies were amenable for PD studies.

[2] = human, plasma, oral, 40 mg, Schedule 2, 40 mg, N=3, median (range)
[3] = human, plasma, oral, 40 mg, Schedule 3, 40mg, Day 1, N=6, median (range)
[4] = human, plasma, oral, 40 mg, Schedule 3, 40mg, Day 22, N=4, median (range)
[5] = human, plasma, oral, 45 mg, Schedule 1, 45 mg, Day 1, N=3, median (range)
[6] = human, plasma, oral, 45 mg, Schedule 1, 45 mg, Day 3, N=3, median (range)
[7] = human, plasma, oral, 50 mg, Schedule 3, 50 mg, Day 1, N=3, median (range)
[8] = human, plasma, oral, 50 mg, Schedule 3, 50 mg, Day 22, N=1
[9] = human, plasma, oral, 65 mg, Schedule 1, 65 mg, Day 1, N=3, median (range)
[10] = human, plasma, oral, 65 mg, Schedule 1, 65 mg, Day 3, N=3, median (range)
[11] = human, plasma, oral, 80 mg, Schedule 2, 80 mg, N=4, median (range)
[12] = human, plasma, oral, 90 mg, Schedule 1, 90 mg, Day 1, N=14, median (range)
[13] = human, plasma, oral, 90 mg, Schedule 1, 90 mg, Day 3, N=14, median (range)
[14] = human, plasma, oral, 120 mg, Schedule 1, 120 mg, Day 1, N=14, median (range)
[15] = human, plasma, oral, 120 mg, Schedule 1, 120 mg, Day 3, N=13, median (range)
[16] = human, plasma, oral, 160 mg, Schedule 1, 160 mg, Day 1, N=5, median (range)
[17] = human, plasma, oral, 160 mg, Schedule 1, 160 mg, Day 3, N=5, median (range)
[18] = human, plasma, oral, 160 mg, Schedule 2, 160 mg, N=3, median (range)
[19] = human, plasma, oral, 240 mg, Schedule 2, 240mg, N=15, median (range)

COc1cccc2cc(-c3nc([C@H]4CC[C@H](C(=O)O)CC4)n4ncnc(N)c34)[nH]c12 [OSI-027]
AUC(0-t) ([1]; human, plasma, oral, 35 mg, Schedule 3, 35 mg, Day 22, N=4, median (range)): 31.2 µg·h/mL | half-life ([1]; human, plasma, oral, 35 mg, Schedule 3, 35 mg, Day 22, N=4, median (range), read-out: T1/2 (converted)): 11.1 h | AUC(0-inf) [1, 2]: 28.6 µg·h/mL | Cmax [1, 2]: 2.51 µg/mL | half-life ([1]; human, plasma, oral, 40 mg, Schedule 2, 40 mg, N=3, median (range), read-out: T1/2 (converted)): 12.4 h | AUC(0-inf) [1, 3]: 77.1 µg·h/mL | Cmax [1, 3]: 3.14 µg/mL | half-life ([1]; human, plasma, oral, 40 mg, Schedule 3, 40mg, Day 1, N=6, median (range), read-out: T1/2 (converted)): 17.8 h | Cmax [1, 4]: 3 µg/mL | AUC(0-t) [1, 4]: 50.1 µg·h/mL | half-life ([1]; human, plasma, oral, 40 mg, Schedule 3, 40mg, Day 22, N=4, median (range), read-out: T1/2 (converted)): 15.9 h | AUC(0-inf) [1, 5]: 31.1 µg·h/mL | Cmax [1, 5]: 2.77 µg/mL | half-life ([1]; human, plasma, oral, 45 mg, Schedule 1, 45 mg, Day 1, N=3, median (range), read-out: T1/2 (converted)): 7.65 h | Cmax [1, 6]: 3.85 µg/mL | AUC(0-t) [1, 6]: 35.1 µg·h/mL | half-life ([1]; human, plasma, oral, 45 mg, Schedule 1, 45 mg, Day 3, N=3, median (range), read-out: T1/2 (converted)): 9.14 h | AUC(0-inf) [1, 7]: 46.2 µg·h/mL | Cmax [1, 7]: 3.04 µg/mL | half-life ([1]; human, plasma, oral, 50 mg, Schedule 3, 50 mg, Day 1, N=3, median (range), read-out: T1/2 (converted)): 10.3 h | Cmax [1, 8]: 1.11 µg/mL | AUC(0-t) [1, 8]: 17.2 µg·h/mL | AUC(0-inf) [1, 9]: 50 µg·h/mL | Cmax [1, 9]: 4.75 µg/mL | half-life ([1]; human, plasma, oral, 65 mg, Schedule 1, 65 mg, Day 1, N=3, median (range), read-out: T1/2 (converted)): 7.01 h | Cmax [1, 10]: 5.55 µg/mL | AUC(0-t) [1, 10]: 64.4 µg·h/mL | half-life ([1]; human, plasma, oral, 65 mg, Schedule 1, 65 mg, Day 3, N=3, median (range), read-out: T1/2 (converted)): 8.46 h | AUC(0-inf) [1, 11]: 52.6 µg·h/mL | Cmax [1, 11]: 3.89 µg/mL | half-life ([1]; human, plasma, oral, 80 mg, Schedule 2, 80 mg, N=4, median (range), read-out: T1/2 (converted)): 9.22 h | AUC(0-inf) [1, 12]: 90.3 µg·h/mL | Cmax [1, 12]: 5.44 µg/mL | half-life ([1]; human, plasma, oral, 90 mg, Schedule 1, 90 mg, Day 1, N=14, median (range), read-out: T1/2 (converted)): 12.1 h | Cmax [1, 13]: 7.01 µg/mL | AUC(0-t) [1, 13]: 69.6 µg·h/mL | half-life ([1]; human, plasma, oral, 90 mg, Schedule 1, 90 mg, Day 3, N=14, median (range), read-out: T1/2 (converted)): 12 h | AUC(0-inf) [1, 14]: 87.6 µg·h/mL | Cmax [1, 14]: 5.59 µg/mL | half-life ([1]; human, plasma, oral, 120 mg, Schedule 1, 120 mg, Day 1, N=14, median (range), read-out: T1/2 (converted)): 10.2 h | Cmax [1, 15]: 5.45 µg/mL | AUC(0-t) [1, 15]: 54.5 µg·h/mL | half-life ([1]; human, plasma, oral, 120 mg, Schedule 1, 120 mg, Day 3, N=13, median (range), read-out: T1/2 (converted)): 12.8 h | AUC(0-inf) [1, 16]: 131 µg·h/mL | Cmax [1, 16]: 9.33 µg/mL | half-life ([1]; human, plasma, oral, 160 mg, Schedule 1, 160 mg, Day 1, N=5, median (range), read-out: T1/2 (converted)): 10.3 h | Cmax [1, 17]: 11 µg/mL | AUC(0-t) [1, 17]: 106 µg·h/mL | half-life ([1]; human, plasma, oral, 160 mg, Schedule 1, 160 mg, Day 3, N=5, median (range), read-out: T1/2 (converted)): 11.9 h | AUC(0-inf) [1, 18]: 267 µg·h/mL | Cmax [1, 18]: 7.62 µg/mL | half-life ([1]; human, plasma, oral, 160 mg, Schedule 2, 160 mg, N=3, median (range), read-out: T1/2 (converted)): 24.7 h | AUC(0-inf) [1, 19]: 125 µg·h/mL | Cmax [1, 19]: 8.78 µg/mL | half-life ([1]; human, plasma, oral, 240 mg, Schedule 2, 240mg, N=15, median (range), read-out: T1/2 (converted)): 13.8 h | half-life ([1]; human, plasma, oral, patients, estimate, based on the weekly dose schedule, read-out: half-life (converted)): ~14 h | half-life ([1]; human, plasma, oral, patients, range over groups, read-out: half-life, range): 8 to 25 h | Tmax ([1]; human, plasma, oral, patients, across dose levels): ≤ 4 h | exposure versus dose ([1]; patients): dose proportional | urinary excretion of unchanged OSI-027, range ([1]; patients): 1–7% | half-life ([1]; patients, estimate, based on the weekly dose schedule): 14 h | average reduction in pS6 expression (IHC) (pS6 in tumour biopsies; 90 mg): 28.6% | average reduction in pS6 (IHC) (pS6 in tumour biopsies; 120 mg): 75.3%
